The record followed here is ChEMBL document CHEMBL1201862, “PubChem BioAssay data set” (2004).

Active and inactive are the calls of the source.

Assay [1] has as its target 26S proteasome non-ATPase regulatory subunit 14 (Homo sapiens, UniProt O00487). As to the kind of experiment: inhibition of proteasome subunit RPN11 – biochemical, fluorescence polarization, uHTS hits, confirmation (AID 602368). The format is functional. For orientation: Fluorescence polarisation rises when a labelled molecule tumbles more slowly, as on binding a larger partner.

In assay [2] the target is 72 kDa type IV collagenase (Homo sapiens, UniProt P08253). As to the kind of experiment: Dose Response validation of uHTS RPN11 inhibitor hits using a MMP-2 Fluorescence assay. The format is functional.
A further assay concerns the target Prothrombin (Bos taurus, UniProt P00735). Kind of assay: thrombin protease inhibitors – biochemical, fluorescence polarization, uHTS hits, dose response (AID 602369). The class given is functional.
For the next assay, the target named is Major prion protein (Homo sapiens, UniProt P04156). The format is functional, cell-based.
In a further assay the target is Melanocortin receptor 4 (Homo sapiens, UniProt P32245). Kind of assay: inhibitors of MC4R cAMP signaling – cell-based, TR-FRET, biased antagonists, dose response (AID 602298).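 Also: antagonist potency against agonist-stimulated cAMP production.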 The class given is functional. (Time-resolved FRET reads energy transfer from a long-lived donor to a nearby acceptor.)
A short description of assay [3]: cAMP pathway inhibition in counterscreen cell line – TR-FRET cAMP detection, counter-screen for MC4R biased antagonist project, dose response (AID 602305).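 Also: U2OS cells stimulated with forskolin near its EC80 as the cAMP inducer; potency is for inhibition of forskolin-stimulated cAMP signaling.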 The format is functional, cell-based.
Assay [4] addresses T1, Sentrin-specific protease 8 (Homo sapiens, UniProt Q96LD8).
T1 sequence (Q96LD8 whole entry): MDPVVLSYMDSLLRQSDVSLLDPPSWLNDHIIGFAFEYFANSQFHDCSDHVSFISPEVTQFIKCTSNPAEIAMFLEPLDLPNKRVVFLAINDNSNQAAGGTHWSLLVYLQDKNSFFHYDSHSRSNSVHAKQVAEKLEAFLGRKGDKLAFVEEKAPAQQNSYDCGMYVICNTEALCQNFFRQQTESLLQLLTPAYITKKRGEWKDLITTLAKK
Kind of assay: inhibition of human SENP8 cleavage activity – biochemical, luminescence, SAR follow-up (AID 504501). The class given is functional.

The target in a further assay is T2, Caspase-3 (Homo sapiens, UniProt P42574).
T2 sequence (P42574 whole entry): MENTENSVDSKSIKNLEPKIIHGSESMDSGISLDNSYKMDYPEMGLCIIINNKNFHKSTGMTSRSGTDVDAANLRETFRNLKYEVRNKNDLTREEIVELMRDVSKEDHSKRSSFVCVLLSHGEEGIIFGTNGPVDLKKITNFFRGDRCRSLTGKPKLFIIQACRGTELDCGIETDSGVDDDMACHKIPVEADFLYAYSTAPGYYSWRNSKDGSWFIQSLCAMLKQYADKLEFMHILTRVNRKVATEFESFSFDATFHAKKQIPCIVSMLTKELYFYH
As to the kind of experiment: SAR Analysis of small molecule inhibitors of Sentrin-specific proteases (SENPs) using a Caspase-3 Selectivity assay. [Related pubchem assays (depositor defined):AID2540, AID2599, AID434973, AID489001]. The format is functional.

Assay [5] deals with T3, Sentrin-specific protease 6 (Homo sapiens, UniProt Q9GZR1).
T3 sequence (Q9GZR1 whole entry): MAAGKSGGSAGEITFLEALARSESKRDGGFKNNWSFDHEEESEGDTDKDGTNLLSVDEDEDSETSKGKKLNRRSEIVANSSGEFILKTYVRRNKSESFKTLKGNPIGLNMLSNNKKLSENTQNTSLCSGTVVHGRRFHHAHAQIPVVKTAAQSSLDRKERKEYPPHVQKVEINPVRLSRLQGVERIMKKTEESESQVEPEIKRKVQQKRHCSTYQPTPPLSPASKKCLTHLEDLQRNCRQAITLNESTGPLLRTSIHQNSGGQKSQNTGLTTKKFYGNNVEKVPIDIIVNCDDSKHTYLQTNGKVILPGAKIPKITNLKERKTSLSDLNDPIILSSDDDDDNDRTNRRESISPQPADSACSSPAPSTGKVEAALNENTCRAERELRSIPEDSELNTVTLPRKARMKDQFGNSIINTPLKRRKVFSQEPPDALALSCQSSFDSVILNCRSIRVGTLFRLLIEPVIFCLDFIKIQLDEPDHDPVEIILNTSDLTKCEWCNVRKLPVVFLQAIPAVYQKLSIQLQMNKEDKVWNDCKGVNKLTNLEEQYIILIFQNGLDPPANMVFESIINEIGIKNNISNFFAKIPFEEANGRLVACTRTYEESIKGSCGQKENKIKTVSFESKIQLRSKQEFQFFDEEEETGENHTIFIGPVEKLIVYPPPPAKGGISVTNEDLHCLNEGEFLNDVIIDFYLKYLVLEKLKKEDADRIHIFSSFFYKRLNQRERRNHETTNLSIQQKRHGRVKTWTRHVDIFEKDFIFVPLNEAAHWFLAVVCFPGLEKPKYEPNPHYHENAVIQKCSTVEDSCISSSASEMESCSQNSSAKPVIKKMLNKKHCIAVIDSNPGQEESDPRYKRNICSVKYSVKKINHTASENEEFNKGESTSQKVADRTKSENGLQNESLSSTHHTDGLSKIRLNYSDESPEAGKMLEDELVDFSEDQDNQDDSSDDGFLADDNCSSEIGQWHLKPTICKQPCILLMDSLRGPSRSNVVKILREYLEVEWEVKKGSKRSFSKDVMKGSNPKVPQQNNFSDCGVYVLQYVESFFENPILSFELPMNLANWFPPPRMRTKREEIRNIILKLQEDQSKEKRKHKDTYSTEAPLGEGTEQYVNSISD
Kind of assay: SAR Analysis of small molecule inhibitors of Sentrin-specific protease 6 (SENP6) using a Luminescent assay. [Related pubchem assays (depositor defined):AID2582, AID2599]. The class given is functional.

The target of assay [6] is T4, Sentrin-specific protease 7 (Homo sapiens, UniProt Q9BQF6).
T4 sequence (Q9BQF6 whole entry): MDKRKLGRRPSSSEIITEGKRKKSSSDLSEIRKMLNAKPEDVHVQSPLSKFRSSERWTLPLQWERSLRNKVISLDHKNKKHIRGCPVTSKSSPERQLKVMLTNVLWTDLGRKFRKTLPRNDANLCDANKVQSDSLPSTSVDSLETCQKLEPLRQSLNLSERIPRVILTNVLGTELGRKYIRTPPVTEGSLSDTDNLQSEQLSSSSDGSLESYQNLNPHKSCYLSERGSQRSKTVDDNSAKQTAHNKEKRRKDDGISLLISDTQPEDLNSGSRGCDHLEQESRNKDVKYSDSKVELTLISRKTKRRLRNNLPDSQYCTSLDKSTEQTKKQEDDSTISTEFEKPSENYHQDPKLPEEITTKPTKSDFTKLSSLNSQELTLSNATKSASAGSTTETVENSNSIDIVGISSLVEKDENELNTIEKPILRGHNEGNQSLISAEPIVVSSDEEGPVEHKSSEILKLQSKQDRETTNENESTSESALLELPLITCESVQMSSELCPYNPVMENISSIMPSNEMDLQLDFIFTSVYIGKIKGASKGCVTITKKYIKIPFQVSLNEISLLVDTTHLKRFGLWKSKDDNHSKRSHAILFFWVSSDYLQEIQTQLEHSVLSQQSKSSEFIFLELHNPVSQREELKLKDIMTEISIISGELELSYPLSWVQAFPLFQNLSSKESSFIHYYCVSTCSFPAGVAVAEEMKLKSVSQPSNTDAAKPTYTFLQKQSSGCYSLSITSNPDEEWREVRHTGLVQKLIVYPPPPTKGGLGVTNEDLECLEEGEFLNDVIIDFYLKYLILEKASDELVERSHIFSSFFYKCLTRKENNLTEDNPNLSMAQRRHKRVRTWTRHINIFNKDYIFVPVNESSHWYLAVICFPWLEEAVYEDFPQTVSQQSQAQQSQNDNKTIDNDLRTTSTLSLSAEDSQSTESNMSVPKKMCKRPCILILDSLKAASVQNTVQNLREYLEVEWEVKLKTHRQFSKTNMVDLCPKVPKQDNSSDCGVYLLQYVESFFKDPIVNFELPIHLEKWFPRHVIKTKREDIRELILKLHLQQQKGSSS
Kind of assay: inhibition of human SENP7 cleavage activity – biochemical, luminescence, SAR follow-up (AID 504497). The format is functional.

Assay [7] addresses DNA dC->dU-editing enzyme APOBEC-3G (Homo sapiens, UniProt Q9HC16). Kind of assay: inhibition of APOBEC3G ssDNA deamination – biochemical, fluorescence, single-stranded DNA substrate, SAR follow-up (AID 602136). The class given is functional. As to conditions: read-out: IC50_Mean.
Assay [8] addresses DNA dC->dU-editing enzyme APOBEC-3A (Homo sapiens, UniProt P31941). Kind of assay: SAR analysis of small molecule inhibitors of APOBEC3A DNA Deaminase via a fluorescence-based single-stranded DNA deaminase assay. The format is functional. As to conditions: read-out: IC50_Mean.
Assay [9] has as its target Cyclin-dependent kinase 2 (Homo sapiens, UniProt P24941). The class given is functional.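 Also: CDK2 measured as one member of a broad kinome profiling panel.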
Assay [10] has as its target Serine/threonine-protein kinase pim-1 (Homo sapiens, UniProt P11309). The format is functional.
Assay [11] concerns the target Cell division cycle 7-related protein kinase (Homo sapiens, UniProt O00311). The class given is functional.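 Also: value obtained from a kinome-wide kinase panel.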
Assay [12] deals with Homeodomain-interacting protein kinase 2 (Homo sapiens, UniProt Q9H2X6). The class given is functional.
Assay [13] addresses MAP kinase-interacting serine/threonine-protein kinase 2 (Homo sapiens, UniProt Q9HBH9). The class given is functional.
Assay [14] addresses Interleukin-1 receptor-associated kinase 4 (Homo sapiens, UniProt Q9NWZ3). The class given is functional.
Assay [15] addresses Glycogen synthase kinase-3 beta (Homo sapiens, UniProt P49841). The format is functional.
Assay [16] addresses cAMP-dependent protein kinase catalytic subunit alpha (Homo sapiens, UniProt P17612). The class given is functional.
Assay [17] concerns the target Dual specificity protein kinase CLK4 (Homo sapiens, UniProt Q9HAZ1). The class given is functional.
Assay [18] deals with Mitogen-activated protein kinase kinase kinase kinase 4 (Homo sapiens, UniProt O95819). The class given is functional.
The target in a further assay is Aurora kinase A (Homo sapiens, UniProt O14965). The class given is functional.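 Also: value from the Navigating the Kinome kinase panel profiling, panel entry STK6.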
In assay [19] the target is Vascular endothelial growth factor receptor 2 (Homo sapiens, UniProt P35968). The format is functional.
The target of a further assay is Aurora kinase B (Homo sapiens, UniProt Q96GD4). The format is functional.
The target of assay [20] is Neuropeptides B/W receptor type 1 (Homo sapiens, UniProt P48145). As to the kind of experiment: human NPBW1 receptor blockade, IC50 – cell-based, fluorescence, dose response, set 5, late-stage follow-up (AID 588566). The class given is functional.
In assay [21] the target is Melanin-concentrating hormone receptor 1 (Homo sapiens, UniProt Q99705). As to the kind of experiment: Late-stage fluorescence-based counterscreen for antagonists of the G-protein coupled receptor 7 (GPR7): cell-based dose response assay to identify antagonists of the melanin-concentrating hormone receptor 1 (MCHR1) Set 5. The format is functional.

Take `Nc1nnc(SCc2nc(O)c3c(-c4ccccc4)csc3n2)s1`: the IC50 in [1] is 28.9 µM (active); in assay [2], > 100 µM (inactive); at Prothrombin, 30.8 µM (active); on Major prion protein, 12.2 µM (inactive); in “cells”, > 138 µM (inactive).
Regarding `COc1cc(C(=S)N2CCOCC2)ccc1OC(=O)c1ccc([N+](=O)[O-])cc1[N+](=O)[O-]`, the IC50 (on Melanocortin receptor 4; in assay [3]) was > 64.6 µM (inactive) throughout.
Turning to `CCc1ccc(-c2nc(/C=C/c3ccccc3)no2)cc1`, the IC50 is > 99 µM (inactive) in assay [4], 80 µM (active) on Caspase-3, > 99 µM (inactive) in assay [5] and 46.5 µM (active) in assay [6].
In the case of `Fc1ccc(OCCSc2nc3cccnc3[nH]2)cc1`, the IC50 in assay [7] and in assay [8] was > 99 µM (inactive) each time.
In the case of `NC1CCCCC1Nc1nccc(Nc2ccccc2C(=O)O)n1` (stereo not drawn), the Ki (in general, a measure of affinity in units of concentration, obtained from inhibition or displacement) in assay [9] was > 7.94 µM (inactive); in assay [10], 2 µM (active); in assay [11], 0.0316 µM (active); in [12], > 3.16 µM (inactive); in assay [13] it was > 10 µM (inactive); in assay [14], > 10 µM (inactive). Moreover, the Ki is 6.31 µM (active) in assay [15], > 7.94 µM (inactive) in [16], > 10 µM (inactive) in assay [17] and > 10 µM (inactive) in assay [18].
As for `O=S(=O)(Nc1ccc2c(c1)C(=NO)c1ccccc1-2)c1cccc(F)c1`, the Ki at Aurora kinase A was 0.501 µM (active); in assay [19], 3.98 µM (active); at Aurora kinase B it was 0.00631 µM (active).
For the compound `O=c1c(Oc2ccc3c(c2)OCO3)c(Cl)cnn1Cc1cccc2ccccc12`, the IC50 is 0.368 µM (active) in assay [20] and 11.2 µM (inactive) in [21].
